Experimental data from patent US5843885A, “ICAM-1/LFA-1 short-chain peptides and method of using same” (The University of Kansas, priority 1997, dated 1998).
Where no end group is shown, it is not given here.

Legend:
ICAM-1 on Molt3 cells = target: T1, ICAM-1 on Molt3 cells (Homo sapiens, UniProt P05362); assay: Conformation modulator assay: binding of FITC-labeled RB-1-88 peptide to T-cells (FACS); conditions: first peptide 4550 μM, then FITC-labeled RB-1-88 1.90 μM
T1 construct: host or cells: Molt3 human T-cell line
T1 sequence (P05362 28-532): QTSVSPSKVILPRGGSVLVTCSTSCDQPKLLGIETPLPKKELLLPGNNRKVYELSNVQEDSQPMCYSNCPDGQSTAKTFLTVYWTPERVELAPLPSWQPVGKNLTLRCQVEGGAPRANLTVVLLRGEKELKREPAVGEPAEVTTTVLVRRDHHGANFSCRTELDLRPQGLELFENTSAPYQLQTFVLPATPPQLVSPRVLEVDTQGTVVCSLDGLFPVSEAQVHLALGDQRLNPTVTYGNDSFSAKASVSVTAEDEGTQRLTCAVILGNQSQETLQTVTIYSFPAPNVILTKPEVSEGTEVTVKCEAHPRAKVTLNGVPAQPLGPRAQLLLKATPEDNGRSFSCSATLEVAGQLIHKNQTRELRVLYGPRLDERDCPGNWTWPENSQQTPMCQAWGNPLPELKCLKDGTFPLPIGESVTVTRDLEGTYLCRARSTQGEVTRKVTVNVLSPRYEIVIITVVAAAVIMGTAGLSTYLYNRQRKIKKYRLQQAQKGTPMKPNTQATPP
Protocol: The antibody binding assay of Example 2 was twice repeated at a peptide concentration of 4550 μM, each time substituting a 455 nmol quantity of synthetic peptide selected from the group consisting of ICAM-based peptide SC-3-111 (Sequence ID No. 10) and LFA-based peptide LJCRF-4 (Sequence ID No. 16) in respective assays. Following incubation for 30 minutes at 37° C. after introduction of the first peptides, both incubated culture were supplemented by an additional quantity of FITC-labeled RB-1-88 (Sequence ID No. 19) peptide in a quantity sufficient to provide a 1.90 μM concentration in the cell/PBS solution.
Following addition of the RB-1-88 (Sequence ID No. 19) peptide, the mixture was incubated for 30 minutes at 4° C., washed three times with 500 μl PBS/BSA, resuspended in 500 μl PBS/BSA and immediately subjected to a flow cytometer analysis as before. Table 3 presents the results of this analysis, which are also depicted in FIGS. 8 (SC-3-111) and 9 (LJCRF-4).

[1] = target: T2, ICAM-1 (CD54) on Molt3 cells (Homo sapiens, UniProt P05362); assay: Antibody binding assay (FACS): anti-CD54 mAb binding to Molt3 T-cells; conditions: for Fluorescence, % change from control of the medium fluorescence intensity: mAb CD54
T2 construct: host or cells: Molt3 human T-cell line
T2 sequence (P05362 28-532): as above

Molt3 cells = assay: Cell metabolic assay (MTT); format: cell-based, human
Protocol: After taking the photographs in Example 3 (and in some instances no photographs were taken), cell metabolic activity was assessed by an MTT assay. A 37.5 μl portion of MTT dye (purchased from SIGMA of St. Louis, Mo.), i.e., 3-[4,5-dimethyl thiazole-2yl]-2, 5-diphenyl tetrazolium bromide; thiazolyl blue) was added to each well, and incubated with the cells at 37° C. for about six hours. After incubation, a 250 μl quantity of a MTT solubilization solution (of a type that may be purchased from either Fischer Scientific of St. Louis, Mo. or BCD Labs of Lawrence, Kans.) was added to each well, and incubated with the cells at room temperature overnight. In the morning, the spectrophotometric absorption of each plate was determined at 570 nm in a microplate ELISA reader manufactured by Cambridge Technologies of Watertown, Mass., in order to assess cell viability as an indicator of potential peptide toxicity.

[2] = target: T3, LFA-1 (CD11a) on Molt3 cells (Homo sapiens, UniProt P20701); assay: Antibody binding assay (FACS): anti-CD11a mAb binding to Molt3 T-cells; conditions: for Fluorescence, % change from control of the medium fluorescence intensity: mAb CD11a, average ± standard error; for blocking efficiency: single run (FIGS. 2 and 3)
T3 construct: host or cells: Molt3 human T-cell line
T3 sequence (P20701 26-1170): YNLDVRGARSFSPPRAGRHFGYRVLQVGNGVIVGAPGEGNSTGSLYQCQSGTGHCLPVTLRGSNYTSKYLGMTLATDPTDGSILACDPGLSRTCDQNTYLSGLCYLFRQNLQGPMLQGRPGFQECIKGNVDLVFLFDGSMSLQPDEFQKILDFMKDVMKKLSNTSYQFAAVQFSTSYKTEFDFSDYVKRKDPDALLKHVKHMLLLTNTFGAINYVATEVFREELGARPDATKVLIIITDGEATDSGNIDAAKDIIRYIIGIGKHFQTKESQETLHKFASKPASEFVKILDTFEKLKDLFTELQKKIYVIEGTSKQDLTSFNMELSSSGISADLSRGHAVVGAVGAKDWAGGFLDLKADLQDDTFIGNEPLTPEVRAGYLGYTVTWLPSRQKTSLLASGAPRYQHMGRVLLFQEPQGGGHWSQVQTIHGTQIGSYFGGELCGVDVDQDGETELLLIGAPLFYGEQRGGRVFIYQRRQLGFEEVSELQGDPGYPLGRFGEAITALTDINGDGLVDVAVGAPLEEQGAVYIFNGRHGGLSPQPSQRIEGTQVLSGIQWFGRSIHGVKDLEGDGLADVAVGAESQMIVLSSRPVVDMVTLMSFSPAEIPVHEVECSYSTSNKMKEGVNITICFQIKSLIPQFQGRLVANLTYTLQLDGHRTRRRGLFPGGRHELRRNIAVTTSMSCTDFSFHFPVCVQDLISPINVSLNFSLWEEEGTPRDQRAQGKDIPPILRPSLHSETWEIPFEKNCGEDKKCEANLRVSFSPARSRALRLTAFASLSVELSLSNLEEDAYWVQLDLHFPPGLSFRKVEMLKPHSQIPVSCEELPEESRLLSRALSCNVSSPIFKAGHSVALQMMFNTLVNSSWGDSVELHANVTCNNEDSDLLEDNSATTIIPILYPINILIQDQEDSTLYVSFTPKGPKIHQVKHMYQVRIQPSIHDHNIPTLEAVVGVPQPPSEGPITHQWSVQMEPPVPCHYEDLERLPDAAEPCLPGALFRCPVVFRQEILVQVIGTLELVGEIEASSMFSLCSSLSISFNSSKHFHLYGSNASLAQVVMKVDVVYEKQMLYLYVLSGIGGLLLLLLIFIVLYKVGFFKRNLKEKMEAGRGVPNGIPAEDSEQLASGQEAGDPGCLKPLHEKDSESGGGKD
T3 sequence (P05107 23-769 partner): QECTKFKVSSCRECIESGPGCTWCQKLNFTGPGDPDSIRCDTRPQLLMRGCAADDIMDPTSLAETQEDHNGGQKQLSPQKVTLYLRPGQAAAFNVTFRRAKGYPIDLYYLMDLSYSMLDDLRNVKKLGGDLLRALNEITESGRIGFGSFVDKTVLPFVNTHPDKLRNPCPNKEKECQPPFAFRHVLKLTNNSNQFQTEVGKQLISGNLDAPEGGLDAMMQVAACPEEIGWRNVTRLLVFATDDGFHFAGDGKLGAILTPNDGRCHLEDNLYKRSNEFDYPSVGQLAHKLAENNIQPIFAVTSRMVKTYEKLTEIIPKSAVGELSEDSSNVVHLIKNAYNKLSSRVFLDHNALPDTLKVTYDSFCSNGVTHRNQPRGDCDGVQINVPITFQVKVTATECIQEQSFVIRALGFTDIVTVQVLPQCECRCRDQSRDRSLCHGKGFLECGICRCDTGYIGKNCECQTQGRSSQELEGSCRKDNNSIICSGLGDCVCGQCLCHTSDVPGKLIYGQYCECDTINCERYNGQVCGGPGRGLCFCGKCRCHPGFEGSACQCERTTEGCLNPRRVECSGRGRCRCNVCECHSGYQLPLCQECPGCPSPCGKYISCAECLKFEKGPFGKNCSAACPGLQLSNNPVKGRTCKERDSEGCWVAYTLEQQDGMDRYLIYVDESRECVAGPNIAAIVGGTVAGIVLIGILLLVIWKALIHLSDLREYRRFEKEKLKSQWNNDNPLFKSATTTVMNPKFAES
Protocol: A 1 ml quantity of the Molt3 inoculum was warmed to 37° C. and transferred by pipette into about 25 ml of a growth culture medium including RPMI 1640 lymphocyte growth medium (Fisher Scientific of St. Louis, Mo.) mixed with 10% by volume fetal calf serum, 100 units/ml penicillin, 100 μg/ml streptomycin and 2 mM glutamine. The inoculated culture was incubated for three to four days at 37° C. under a normal atmosphere having about 5% CO2 added thereto. This culture was capable of being maintained indefinitely by siphoning away the top (non-cell containing) layer and adding 50 ml (or more) of growth culture medium at intervals of three to four days.
An aqueous buffer solution including Dulbecco's phosphate buffered saline and bovine serum albumin ("PBS/BSA solution") was prepared for use, and included a mixture of 200 mg KH2 PO4, 1.15 g Na2 HPO4, 100 mg CaCl2, 200 mg KC1, 100 mg MgCl2.6H2 O, 8 g NaCl, with distilled water added to a final 1 liter volume at room temperature, thus, forming a "PBS" solution of pH 7.4 to which was added 0.5% by weight bovine serum albumin.
An aliquot of about 7 ml was removed from the incubated culture medium and subjected to washing with the PBS/BSA solution. The washing procedure was initiated by placing the aliquot in a centrifuge (Model GT422 from Jouan, distributed Piruscio & Assoc. of Manchester, Mo.) at 1400 rpm for 6.5 minutes to separate the cells from the growth medium. The supernatant fluid was decanted, a 5 ml portion of PBS/BSA solution was transferred by pipette into the pellet, and the mixture was again centrifuged as before. The resulting supernatant fluid was decanted and the cells from the pellet were resuspended in PBS/BSA solution at a titer of about 1×10^6 cells/ml. A 500 μl portion of the solution containing the resuspended cells was placed in a microcentrifuge (Marathon 13K/M from Fisher Scientific of St. Louis, Mo.) at 3500 rpm for six minutes, to provide a washed pellet.
[…] The cells were incubated with the peptide cocktail at 37° C. for 45 minutes.
After incubation with the peptide cocktail, several antibodies were successively mixed into the incubated solution. A 75 μl portion of anti-IgM solution (a mixture of 10 μl of goat anti-human IgM stock purchased from Jackson Immuno Research of Westgrove, Pa; and 65 μl of PBS/BSA solution) was added to the peptide cocktail for blocking of nonspecific binding of the secondary antibody. The resulting mixture was incubated for 10 minutes on ice. About 0.1 μg of a primary antibody including mouse IgG anti-human CD11a (purified according to conventional protocols at the University of Kansas Department of Pharmacology and Toxicology from an American Type Culture hybridoma cell line having Catalogue Number HB-202) was next stirred into the mixture, which was then incubated for 30 minutes at room temperature. The incubated mixture was placed in a microcentrifuge at 3500 rpm for six minutes to remove the cells from the mixture, and the cell pellet was washed two times by adding 500 μl aliquots of PBS/BSA solution and microfuging to remove non-bound antibodies from the cells as before. The resulting washed pellet was resuspended in 100 μl of a secondary antibody cocktail including 5 μl of fluorescein isothiocyanate ("FITC") labeled goat anti-mouse IgG (from CALTAG of South San Francisco, Calif.) and 95 μl of PBS/BSA solution. The resulting solution was incubated for 30 minutes at room temperature in the dark.
The incubated solution including the secondary antibody cocktail was microfuged at 3500 rpm for six minutes to remove the cells from the solution, and the cell pellet was washed two times with 500 μl portions of PBS/BSA solution, as before, to remove unbound antibodies. […]

[3] = target: Leucocyte Function Associated antigen-1 (LFA-1), on Molt3 human T-cells (human); assay: flow cytometry on Molt3 T-cells; control without peptide; FITC goat anti-mouse IgG secondary
[4] = target: Leucocyte Function Associated antigen-1 (LFA-1), on Molt3 human T-cells (human); assay: flow cytometry on Molt3 T-cells preincubated with SC-3-111 (run of FIG. 2); FITC goat anti-mouse IgG secondary
[5] = target: Leucocyte Function Associated antigen-1 (LFA-1), on Molt3 human T-cells (human); assay: flow cytometry on Molt3 T-cells; peptide 4550 µM; probe antibody mouse IgG anti-human CD11a; average of 2 runs
[6] = peptide 4550 μM, average ± standard error

Molecule | MTT % Viability (Molt3 cells; 230 μM) [%] | MTT % Viability (Molt3 cells; 460 μM) [%] | MTT % Viability (Molt3 cells; 910 μM) [%] | MTT % Viability (Molt3 cells; 1820 μM) [%] | Fluorescence, % change from control of the medium fluorescence intensity ([2]; peptide 2275 μM) | Fluorescence, % change from control of the medium fluorescence intensity ([2]; peptide 4550 μM) [%] | other results
DLSYSLDDLRNVKKLGGDLLRALNE [LJCRF-4] | 101 | 94 | 60 | 11 | – | – | FACS Analysis (RB-1-88 binding), shift from control (ICAM-1 on Molt3 cells): +145%; Fluorescence, % change from control of the medium fluorescence intensity ([1]; peptide 2275 μM, average ± standard error): +3 ± 1%; Fluorescence, % change from control of the medium fluorescence intensity ([1]; peptide 6825 μM): +521%; curve shift / median peak enhancement ([1]; single run (FIG. 4), 4550 μM, anti-ICAM-1 mAb): +447%; MTT % Viability (Molt3 cells; 115 μM): 99%; MTT % Viability (Molt3 cells; 115 μM, listed as SC-3-223): 103%; MTT % Viability (Molt3 cells; 230 μM, listed as SC-3-223): 109%; MTT % Viability (Molt3 cells; 460 μM, listed as SC-3-223): 112%; MTT % Viability (Molt3 cells; 910 μM, listed as SC-3-223): 108%; MTT % Viability (Molt3 cells; 1820 μM, listed as SC-3-223): 75%
DQPKLLGIETPLPKKELLLPGNNRK [LJCRF-2] | 38 | 38 | 38 | 43 | +48 ± 8% | -43 ± 7 | MTT % Viability (Molt3 cells; concentration not given): 38%
GVDVDQDGETELIGAPLFYGEQRG [LJCRF-5] | 84 | 81 | 52 | 20 | – | – | Fluorescence, % change from control of the medium fluorescence intensity [1, 6]: -17%; MTT % Viability (Molt3 cells; 115 μM): 95%; metabolic activity in MTT assay (Molt3 cells; 1820 μM): decrease in metabolic activity
ITDGEATDSGNIDAAKDIIYIIGI [LJCRF-6] | – | – | – | – | – | – | Fluorescence, % change from control of the medium fluorescence intensity [1, 6]: -4%
KELLLPGNNRKVYELSNVQEDSQP [LJCRF-3] | – | – | – | – | – | -13 ± 19 | –
LPRGGSVLVTG [MC-1-80] | – | – | – | – | – | – | metabolic activity in MTT assay (Molt3 cells; 910 μM): cellular respiration was enhanced
QTSVSPSKVI [SC-3-111] | 93 | 95 | 89 | 69 | -12 ± 4% | -29 ± 2 | % change of median peak from control ([2]; single run (FIG. 2), 4550 μM, anti-CD11a): -51%; blocking efficiency ([2]; 4550 μM, anti-CD11a): 51%; MTT % Viability (Molt3 cells; concentration not given): 85%
QTSVSPSKVILPRGGSVLVTG [LJCRF-1] | – | 93 | 92 | 66 | -12 ± 2% | -29 ± 3 | blocking efficiency ([2]; 4550 μM, anti-CD11a): 65%
mouse IgG anti-human CD11a (from American Type Culture hybridoma cell line HB-202) (antibody) | – | – | – | – | – | – | median peak fluorescence intensity (fluorescence intensity) [3]: 264; median peak fluorescence intensity (fluorescence intensity) [4]: 129
KELLLPGNNRKVYELSNVQEDSQP [LJCRF-3] | – | – | – | – | – | – | % change from control of the median fluorescence intensity (% change from control) [5]: -13
